Results: patent US9309242B2, “Substituted pyrido[2,3-b]pyrazines as FGFR kinase inhibitors” (priority 2011, dated 2016)

Tests used:
[1] = test system: Ba/F3-FGFR1-transfected cells; assay: Ba/F3-FGFR1 (plus IL3) cellular proliferation assay, counterscreen with 10 ng/ml murine IL3; assay type: cell-based; conditions: plus IL3 (10 ng/ml murine IL3, counterscreen); read-out: BAF3-FGFR1 (PLUS IL3) pIC50 (converted)
Outline: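 Ba/F3-FGFR1 cells (20000/well) in RPMI-1640 with 10% FBS exposed to compound for 24 h at 37° C., 5% CO2, then Alamar Blue (resazurin) added for 4 h; fluorescence read at ex 540/em 590 nm. Counterscreen run identically with 10 ng/ml murine IL3.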

KDR (h) = KDR (h) (Homo sapiens, UniProt P35968); assay: KDR (VEGFR2) (enzymatic assay), TR-FRET; assay type: biochemical; conditions: read-out: VEGFR 2 (KDR) pIC50 (converted)
Outline: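 Read-out is TR-FRET (ex 340 nm, em 620 and 655 nm) in RFU, after an EDTA stop carrying Eu-labelled anti-phosphotyrosine and SA-XL-665 (60 min, RT). The preceding kinase reaction ran 120 min at RT with 150 ng/ml enzyme, 500 nM Btn-Flt3 and 3 μM ATP.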

FGFR4 (h) = FGFR4 (h) (Homo sapiens, UniProt P22455); assay: FGFR4 (enzymatic assay), TR-FRET; assay type: biochemical; conditions: FGFR 4 pIC50, enzymatic assay
[2] = target: T1, Ba/F3-KDR-transfected cells (Homo sapiens, UniProt P35968); assay: Ba/F3-KDR (minus IL3) cellular proliferation assay, Alamar Blue; assay type: cell-based
T1 construct: BAF3-KDR (MIN IL3) pIC50; other: minus IL3
Outline: (§1)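 20000 cells/well, RPMI-1640 + 10% FBS + 2 mM L-Gln; compound 24 h, 37° C/5% CO2; Alamar Blue 4 h; RFU ex540/em590.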

[3] = target: T2, Ba/F3-FGFR1-transfected cells (Homo sapiens, UniProt P11362); assay: Ba/F3-FGFR1 (minus IL3) cellular proliferation assay, Alamar Blue; assay type: cell-based
T2 construct: BAF3-FGFR1 (MIN IL3) pIC50; other: minus IL3
Outline: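 Viability of transfected Ba/F3-FGFR1 cells (20000 per well, RPMI-1640 with 10% FBS and 2 mM L-glutamine) was scored by resazurin-based Alamar Blue reduction over 4 h, after 24 h treatment with compound at 37 °C under 5% CO2.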

[4] = target: T3, Ba/F3-FGFR3-transfected cells (Homo sapiens, UniProt P22607); assay: Ba/F3-FGFR3 (minus IL3) cellular proliferation assay, Alamar Blue; assay type: cell-based
T3 construct: BAF3-FGFR3 (MIN IL3) pIC50; other: minus IL3
Outline: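 With or without 10 ng/ml murine IL3, FGFR3-dependent Ba/F3 cells were treated 24 h with compound, then viability was gauged by Alamar Blue fluorescence after 4 h (ex 540/em 590 nm).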

FGFR2 (h) = FGFR2 (h) (Homo sapiens, UniProt P21802); assay: FGFR2 (enzymatic assay), TR-FRET; assay type: biochemical; conditions: enzymatic assay; read-out: FGFR 2 pIC50 (converted)
Outline: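 Compound (1% DMSO final) was combined with FGFR2 (h), 150 ng/ml, plus 0.4 μM ATP and 500 nM biotin-Flt3 in Mn2+-containing HEPES buffer at pH 7.5.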

[5] = test system: Ba/F3-KDR-transfected cells; assay: Ba/F3-KDR (plus IL3) cellular proliferation assay, counterscreen with 10 ng/ml murine IL3; assay type: cell-based; conditions: plus IL3 (10 ng/ml murine IL3, counterscreen); read-out: BAF3-KDR (PLUS IL3) pIC50 (converted)
Outline: as §1

FGFR3 (h) = FGFR3 (h) (Homo sapiens, UniProt P22607); assay: FGFR3 (enzymatic assay), TR-FRET; assay type: biochemical; conditions: read-out: FGFR 3 pIC50 (converted)
Excerpt: Time-Resolved Fluorescence Resonance Energy Transfer (TR-FRET) signal (ex340 nm.

KDR (h), sequence (P35968 20-1356): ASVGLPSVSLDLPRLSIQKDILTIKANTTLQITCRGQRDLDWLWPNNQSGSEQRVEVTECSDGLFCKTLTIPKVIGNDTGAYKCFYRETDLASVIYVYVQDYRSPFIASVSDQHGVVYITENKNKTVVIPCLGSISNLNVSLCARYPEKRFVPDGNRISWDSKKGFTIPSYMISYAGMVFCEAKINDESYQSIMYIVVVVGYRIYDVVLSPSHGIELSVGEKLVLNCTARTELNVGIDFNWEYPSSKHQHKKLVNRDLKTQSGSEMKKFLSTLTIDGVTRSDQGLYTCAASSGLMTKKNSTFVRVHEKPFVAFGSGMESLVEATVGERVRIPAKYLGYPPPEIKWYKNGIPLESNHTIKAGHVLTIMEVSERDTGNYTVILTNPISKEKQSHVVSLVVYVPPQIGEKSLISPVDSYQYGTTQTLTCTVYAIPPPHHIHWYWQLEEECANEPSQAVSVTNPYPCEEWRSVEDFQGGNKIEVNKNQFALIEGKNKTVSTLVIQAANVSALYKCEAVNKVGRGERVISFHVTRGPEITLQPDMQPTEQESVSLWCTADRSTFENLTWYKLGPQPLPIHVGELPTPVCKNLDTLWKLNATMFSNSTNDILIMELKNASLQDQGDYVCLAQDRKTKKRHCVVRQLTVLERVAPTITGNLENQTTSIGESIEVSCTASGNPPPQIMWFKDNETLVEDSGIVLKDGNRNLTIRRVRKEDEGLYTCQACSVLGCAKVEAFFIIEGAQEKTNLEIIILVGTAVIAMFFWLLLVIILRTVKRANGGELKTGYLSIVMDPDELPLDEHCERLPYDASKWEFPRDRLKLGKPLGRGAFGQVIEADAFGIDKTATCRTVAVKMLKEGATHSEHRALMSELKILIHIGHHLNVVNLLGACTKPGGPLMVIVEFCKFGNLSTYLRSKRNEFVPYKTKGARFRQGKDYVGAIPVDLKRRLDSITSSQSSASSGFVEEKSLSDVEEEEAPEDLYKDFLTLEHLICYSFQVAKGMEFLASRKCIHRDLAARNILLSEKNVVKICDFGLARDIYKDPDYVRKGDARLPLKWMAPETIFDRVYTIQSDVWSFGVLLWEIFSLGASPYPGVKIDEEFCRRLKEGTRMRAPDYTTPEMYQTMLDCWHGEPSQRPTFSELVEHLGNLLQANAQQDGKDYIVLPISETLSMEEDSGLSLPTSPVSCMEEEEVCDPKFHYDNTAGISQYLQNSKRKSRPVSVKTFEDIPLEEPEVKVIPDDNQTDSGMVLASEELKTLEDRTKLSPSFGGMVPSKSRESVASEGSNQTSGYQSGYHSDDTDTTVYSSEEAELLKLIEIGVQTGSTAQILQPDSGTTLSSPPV
T1 sequence (P35968 whole entry, change not shown): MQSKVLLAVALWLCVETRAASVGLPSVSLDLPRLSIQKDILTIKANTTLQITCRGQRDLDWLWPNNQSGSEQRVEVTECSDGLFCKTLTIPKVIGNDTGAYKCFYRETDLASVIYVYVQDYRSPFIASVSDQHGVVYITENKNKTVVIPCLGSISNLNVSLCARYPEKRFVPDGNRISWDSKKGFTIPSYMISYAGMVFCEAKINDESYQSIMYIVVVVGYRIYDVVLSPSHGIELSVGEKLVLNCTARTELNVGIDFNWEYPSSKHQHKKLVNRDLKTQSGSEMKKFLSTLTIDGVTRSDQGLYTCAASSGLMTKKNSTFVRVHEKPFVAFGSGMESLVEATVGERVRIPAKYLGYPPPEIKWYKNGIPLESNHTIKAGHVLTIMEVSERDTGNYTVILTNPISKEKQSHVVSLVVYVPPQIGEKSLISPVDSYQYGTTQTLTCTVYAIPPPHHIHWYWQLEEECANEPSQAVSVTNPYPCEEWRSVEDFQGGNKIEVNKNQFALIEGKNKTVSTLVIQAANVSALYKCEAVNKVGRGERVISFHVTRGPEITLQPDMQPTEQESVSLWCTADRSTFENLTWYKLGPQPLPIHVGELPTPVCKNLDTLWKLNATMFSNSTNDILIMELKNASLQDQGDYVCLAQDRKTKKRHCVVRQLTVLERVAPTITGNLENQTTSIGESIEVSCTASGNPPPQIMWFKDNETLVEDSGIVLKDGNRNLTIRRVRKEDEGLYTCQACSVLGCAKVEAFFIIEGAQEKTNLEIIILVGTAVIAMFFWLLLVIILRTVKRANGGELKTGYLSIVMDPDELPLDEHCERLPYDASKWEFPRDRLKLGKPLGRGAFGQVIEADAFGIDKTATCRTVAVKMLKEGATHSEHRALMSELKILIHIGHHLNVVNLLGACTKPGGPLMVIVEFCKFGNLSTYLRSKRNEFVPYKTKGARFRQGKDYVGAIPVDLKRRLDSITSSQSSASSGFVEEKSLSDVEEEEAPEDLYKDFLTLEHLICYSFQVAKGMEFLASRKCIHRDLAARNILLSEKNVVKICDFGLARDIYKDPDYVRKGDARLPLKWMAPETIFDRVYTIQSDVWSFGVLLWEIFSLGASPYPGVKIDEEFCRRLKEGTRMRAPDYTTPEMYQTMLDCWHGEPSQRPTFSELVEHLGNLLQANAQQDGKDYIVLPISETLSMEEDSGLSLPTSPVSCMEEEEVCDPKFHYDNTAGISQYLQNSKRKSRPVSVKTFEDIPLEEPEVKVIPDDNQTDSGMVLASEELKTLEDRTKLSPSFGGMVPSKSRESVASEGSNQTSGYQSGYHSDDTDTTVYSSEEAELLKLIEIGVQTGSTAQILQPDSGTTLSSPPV
T3 sequence (P22607 whole entry, change not shown): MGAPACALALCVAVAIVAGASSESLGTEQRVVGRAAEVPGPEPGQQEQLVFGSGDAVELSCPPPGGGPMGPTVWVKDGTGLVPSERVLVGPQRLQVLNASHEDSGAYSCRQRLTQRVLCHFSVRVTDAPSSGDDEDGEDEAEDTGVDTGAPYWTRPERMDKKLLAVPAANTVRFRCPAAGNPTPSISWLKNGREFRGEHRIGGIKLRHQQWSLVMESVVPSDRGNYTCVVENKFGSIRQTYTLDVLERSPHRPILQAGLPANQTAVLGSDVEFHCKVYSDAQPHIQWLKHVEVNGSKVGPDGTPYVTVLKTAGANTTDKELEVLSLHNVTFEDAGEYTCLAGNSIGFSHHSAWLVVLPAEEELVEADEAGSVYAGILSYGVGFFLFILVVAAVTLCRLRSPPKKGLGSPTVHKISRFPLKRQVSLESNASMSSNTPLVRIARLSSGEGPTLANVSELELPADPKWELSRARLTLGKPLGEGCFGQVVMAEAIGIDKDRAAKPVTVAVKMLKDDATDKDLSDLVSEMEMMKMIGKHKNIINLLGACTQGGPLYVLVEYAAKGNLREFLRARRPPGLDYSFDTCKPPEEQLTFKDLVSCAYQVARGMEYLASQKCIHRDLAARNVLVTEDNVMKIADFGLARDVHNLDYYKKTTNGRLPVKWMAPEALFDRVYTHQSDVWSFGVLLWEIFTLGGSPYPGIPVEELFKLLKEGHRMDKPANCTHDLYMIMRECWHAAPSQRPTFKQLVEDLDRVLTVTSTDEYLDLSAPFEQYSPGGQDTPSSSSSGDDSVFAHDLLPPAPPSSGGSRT
FGFR3 (h), sequence (P22607 23-806): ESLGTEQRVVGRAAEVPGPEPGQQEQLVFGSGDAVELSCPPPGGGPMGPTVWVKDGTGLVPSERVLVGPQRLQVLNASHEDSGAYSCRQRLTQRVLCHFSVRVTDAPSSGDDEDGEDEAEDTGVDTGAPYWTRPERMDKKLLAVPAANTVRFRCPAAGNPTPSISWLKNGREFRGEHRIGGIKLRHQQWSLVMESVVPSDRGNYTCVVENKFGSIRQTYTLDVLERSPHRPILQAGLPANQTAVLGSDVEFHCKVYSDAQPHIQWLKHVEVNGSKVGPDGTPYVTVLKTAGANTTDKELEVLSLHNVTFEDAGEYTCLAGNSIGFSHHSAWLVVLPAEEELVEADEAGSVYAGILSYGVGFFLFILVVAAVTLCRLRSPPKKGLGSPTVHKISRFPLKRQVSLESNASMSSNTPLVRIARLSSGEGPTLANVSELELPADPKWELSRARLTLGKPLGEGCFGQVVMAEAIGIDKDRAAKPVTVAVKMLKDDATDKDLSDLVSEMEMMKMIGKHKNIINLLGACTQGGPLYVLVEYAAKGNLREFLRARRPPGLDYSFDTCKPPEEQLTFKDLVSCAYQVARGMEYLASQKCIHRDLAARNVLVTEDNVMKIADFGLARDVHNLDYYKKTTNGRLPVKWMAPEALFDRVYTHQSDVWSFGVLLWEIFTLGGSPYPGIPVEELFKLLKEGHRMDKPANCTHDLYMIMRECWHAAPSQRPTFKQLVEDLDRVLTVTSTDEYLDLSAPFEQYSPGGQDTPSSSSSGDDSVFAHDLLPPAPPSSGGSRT
T2 sequence (P11362 whole entry, change not shown): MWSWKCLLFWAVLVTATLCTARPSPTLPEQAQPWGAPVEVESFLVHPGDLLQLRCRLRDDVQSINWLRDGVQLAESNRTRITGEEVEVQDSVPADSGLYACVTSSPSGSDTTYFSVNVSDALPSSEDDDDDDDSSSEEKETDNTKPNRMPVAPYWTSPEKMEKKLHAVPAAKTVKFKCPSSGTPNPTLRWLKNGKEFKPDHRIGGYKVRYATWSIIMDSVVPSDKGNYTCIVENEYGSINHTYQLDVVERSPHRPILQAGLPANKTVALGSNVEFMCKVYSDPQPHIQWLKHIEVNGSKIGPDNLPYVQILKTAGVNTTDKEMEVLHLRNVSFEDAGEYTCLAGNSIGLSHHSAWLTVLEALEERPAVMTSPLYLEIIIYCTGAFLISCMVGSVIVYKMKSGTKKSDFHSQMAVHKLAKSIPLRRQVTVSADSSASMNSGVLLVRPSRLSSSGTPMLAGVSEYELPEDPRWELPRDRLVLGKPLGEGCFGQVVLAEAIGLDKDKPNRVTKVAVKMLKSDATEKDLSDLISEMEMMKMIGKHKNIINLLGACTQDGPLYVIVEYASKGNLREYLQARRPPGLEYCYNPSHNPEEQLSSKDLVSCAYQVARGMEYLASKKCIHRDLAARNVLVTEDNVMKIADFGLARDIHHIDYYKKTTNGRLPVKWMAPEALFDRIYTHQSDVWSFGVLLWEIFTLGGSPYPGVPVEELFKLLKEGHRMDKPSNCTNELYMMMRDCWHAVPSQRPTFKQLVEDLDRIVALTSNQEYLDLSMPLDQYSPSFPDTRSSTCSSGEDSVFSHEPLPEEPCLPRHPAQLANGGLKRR

SMILES	IC50 [1]	IC50 (KDR (h))	IC50 (FGFR4 (h))	BAF3-KDR (MIN IL3) pIC50 [2]	BAF3-FGFR1 (MIN IL3) pIC50 [3]	BAF3-FGFR3 (MIN IL3) pIC50 [4]	IC50 (FGFR2 (h))	IC50 [5]	IC50 (FGFR3 (h))
COc1ccc(Cl)c(N(CC2CCC(=O)N2)c2ccc3ncc(-c4cnn(C)c4)nc3n2)c1Cl (single isomer, unassigned) [Compound 90]	> 10000 nM	> 1000 nM	~912 nM	<5	5.04	5.19	129 nM	> 10000 nM	126 nM
COc1cc(OC)c(F)c(N(CCNC2COC2)c2ccc3ncc(-c4cnn(C)c4)nc3n2)c1F (single isomer, unassigned) [Compound 162]	> 10000 nM	8.91 nM	2.57 nM	6.61	7.88	7.95	2.19 nM	> 10000 nM	1.41 nM
COc1cc(OC)c(F)c(N(CCN(C2COC2)C2COC2)c2ccc3ncc(-c4cnn(C)c4)nc3n2)c1F (single isomer, unassigned) [Compound 163]	> 10000 nM	8.51 nM	3.24 nM	6.21	7.82	7.34	1.91 nM	> 10000 nM	2.63 nM
COc1cc(/N=c2\ccc3ncc(-c4cnn(C)c4)nc3n2CC2CCOC2)c(F)c(OC)c1 (single isomer, unassigned) [Compound 169]	> 10000 nM	4.27 nM	0.977 nM	6.40	7.68	7.44	1.62 nM	> 10000 nM	1.02 nM
COc1cc(OC)c(F)c(N(CC2CCOC2)c2ccc3ncc(-c4cnn(C)c4)nc3n2)c1 (single isomer, unassigned) [Compound 170]	> 10000 nM	13.5 nM	4.9 nM	5.56	6.92	6.78	2.14 nM	> 10000 nM	2.19 nM
COc1cc(/N=c2\ccc3ncc(-c4cnn(CC(C)(C)O)c4)nc3n2CC(C)(C)O)c(F)c(OC)c1 (single isomer, unassigned) [Compound 207]	> 10000 nM	8.32 nM	3.16 nM	6.11	7.45	~7.57	2.51 nM	> 10000 nM	1.17 nM
COc1cc(OC)c(F)c(N(CC(C)(C)O)c2ccc3ncc(-c4cnn(CC(C)(C)O)c4)nc3n2)c1 (single isomer, unassigned) [Compound 208]	> 10000 nM	77.6 nM	18.6 nM	5.57	6.84	~7.15	5.25 nM	> 10000 nM	3.72 nM
COc1cc(OC)c(F)c(N(CC2CCC(=O)N2CCO)c2ccc3ncc(-c4cnn(C)c4)nc3n2)c1 (single isomer, unassigned) [Compound 218]	> 10000 nM	42.7 nM	3.89 nM	5.64	7.51	~7.64	5.5 nM	> 10000 nM	4.17 nM
COc1cc(/N=c2\ccc3ncc(-c4cnn(C)c4)nc3n2CC2CCC(=O)N2CCO)c(F)c(OC)c1 (single isomer, unassigned) [Compound 219]	> 10000 nM	7.94 nM	1.91 nM	6.38	7.77	7.66	2.24 nM	> 10000 nM	1.29 nM
COc1ccc(Cl)c(N(CC2CCC(=O)N2)c2ccc3ncc(-c4cnn(C)c4)nc3n2)c1Cl (stereo not drawn) [Compound 93]	> 10000 nM	> 1000 nM	794 nM	<5	5.59	~5.59	60.3 nM	> 10000 nM	77.6 nM
COc1cc(O)c(F)c(N(Cc2ncc[nH]2)c2ccc3ncc(-c4cnn(C)c4)nc3n2)c1 [Compound 96]	> 10000 nM	11.5 nM	1.78 nM	5.89	8.08	~8.09	1.58 nM	> 10000 nM	1.07 nM
COc1cc(OC)cc(N(Cc2ncc[nH]2)c2ccc3ncc(-c4cn[nH]c4)nc3n2)c1 [Compound 141]	> 10000 nM	12 nM	0.603 nM	5.87	8.27	~8.13	0.933 nM	> 10000 nM	0.457 nM
COc1cc(OC)cc(N(CC2COC2)c2ccc3ncc(-c4cnn(C)c4)nc3n2)c1 [Compound 142]	> 10000 nM	74.1 nM	30.2 nM	<5	5.49	5.30	7.94 nM	> 10000 nM	5.75 nM
COc1cc(/N=c2\ccc3ncc(-c4cnn(C)c4)nc3n2CC2COC2)c(F)c(OC)c1 [Compound 143]	> 10000 nM	5.01 nM	1.02 nM	<5	5.48	5.42	1.51 nM	> 10000 nM	0.759 nM
